According to patent US8658183B2, “Antimicrobial parenteral formulation” (Taigen Biotechnology Company, Ltd., priority 2007, dated 2014):
Converted amounts (≈) assume the structure as drawn. Like-named read-outs stand apart in the source and are kept apart here.

Tests used:
[1] = Effect of pH on Compound 1 saline formulation; assay type: physicochemical; settings: 5 mg/mL in 0.9% saline
streptococci = experiment: In vitro antibacterial activity, agar dilution; assay type: cell-based, Streptococcus
Experimental: (§1) Various bacterial species, such as Gram positive bacteria (e.g., Clostridium, Staphylococcus and Streptococcus), Gram negative bacteria (e.g., Moraxella, Haemophilus, Pseudomonas, Proteus, and Bacteriodes), anaerobic and atypical pathogens, were isolated from clinical samples. The antibacterial activity of Compound of Formula I against these bacterial species were determined using agar dilution assays described in the U.S. National Committee for Clinical Laboratory, M7-A6, 2003, and M11-A5, 2001.

staphylococci = experiment: In vitro antibacterial activity, agar dilution; assay type: cell-based, Staphylococcus
Experimental: as §1

[2] = Long-term and accelerated storage stability of Compound 1 saline formulation; assay type: physicochemical; settings: 5 mg/mL (free base) in 0.9% saline
Experimental: At each sampling point (marked as “X” in the above table), samples were evaluated for their appearance, color, clarity, pH, UV absorption, assay and impurity.

[3] = for Appearance: 5 mg/mL (free base) in 0.9% saline, light box 4500Lx+/−500Lx; for UV Absorption: compared with Standard; for UV Absorption / pH Value: intense light 4500Lx+/−500Lx
[4] = 5 mg/mL in 0.9% saline
Experimental: The solution was filtered and transferred to 100-mL polypropylene bottles. The bottles were capped, sealed, sterilized at 110° C. for 35 min, and stored at 60° C. oven. The solution in the bottles was analyzed on days 0, 5, and 10.

MRSA = experiment: In vitro antibacterial activity, agar dilution; assay type: cell-based, S. aureus
Experimental: as §1

[5] = Effect of activated charcoal on Compound 1 saline formulation; settings: 5 mg/mL in 0.9% NaCl
[6] = Effect of iron content on Compound 1 saline formulation; assay type: physicochemical; settings: 5 mg/mL in 0.9% saline, filtered, sterilized
Experimental: The solution was equally divided into 2 portions. To one portion was added 0.25 g activated charcoal and to the other was added 0.25 g activated charcoal and 0.1 g of iron powder. Each of the resulting mixture was stirred and filtered to a 100-mL polypropylene bottle.

[7] = Effect of temperature and time during sterilization on Compound 1 saline formulation; assay type: physicochemical; settings: 0.9% saline
Experimental: To the solution was added 1.5 g of activated charcoal (0.05% g/mL). The mixture was stirred for 15 min and filtered. The filtrate was added to a serious of 100-mL polypropylene bottles. The filled bottles were capped, sealed, and divided into four groups (7 bottles/group).

S. pneumoniae Stp 6301 = experiment: In vivo antibacterial efficacy, mouse pulmonary infection model
Experimental: The in vivo antibacterial efficacy of Compound 1 was evaluated in a mouse model. Mice were anesthetized and infected intranasally with a lethal amount of S. pneumoniae Stp 6301. Twelve, eighteen, and twenty-four hours after the infection, a composition containing Compound 1 or moxifloxacin (as a positive control), 0.7% lactic acid, and 3% dextrose was administered subcutaneously to the mice at a total dose of 50, 25, 12.5, or 6.25 mg/kg. Half of the treated mice were euthanized four hours after the last treatment of Compound 1 or moxifloxacin and their blood and lung tissues were collected. The number of viable bacteria in the blood and lung tissues was then determined. The lung tissues were also subjected to histopathologic evaluation. The other half of the mice were monitored for 6 days and the number of the surviving mice was recorded.

[8] = 5 mg/mL in 5% dextrose
Experimental: The solution was filtered and transferred to in 100-mL polypropylene bottles. The bottles were capped, sealed, sterilized at 110° C. for 35 min, and stored at 60° C. oven. The solution in the bottles was analyzed on days 0, 5, and 10.

[9] = Effect of lower temperature (−15° C.) on Compound 1 saline formulation; assay type: physicochemical; settings: 5 mg/mL in 0.9% saline
[10] = Effect of pH on Compound 1 saline formulation; assay type: physicochemical
Experimental: 2000 mL solution of Compound 1 in 0.9% saline was prepared in the same manner as described above. The solution was equally divided into 6 portions. The pH values for the 6 portions were adjusted to 2.43, 3.00, 3.76, 4.51, 6.01 and 7.13 by adding dilute hydrochloric acid or sodium hydroxide. The appearance and content of solutions were analyzed and shown below.

[11] = system: methicillin-susceptible S. aureus (MSSA); experiment: In vitro antibacterial activity, agar dilution; assay type: cell-based
Experimental: as §1

E. coli = experiment: In vitro antibacterial activity, agar dilution; assay type: cell-based; settings: clinical isolates
Experimental: as §1

Clostridium difficile = experiment: In vitro antibacterial activity, agar dilution; assay type: cell-based; settings: anaerobic pathogen, clinical isolates
Experimental: as §1

Pseudomonas aeruginosa = experiment: In vitro antibacterial activity, agar dilution; assay type: cell-based; settings: clinical isolates
Experimental: as §1

Moraxella catarrhalis = experiment: In vitro antibacterial activity, agar dilution; assay type: cell-based; settings: clinical isolates
Experimental: as §1

[12] = system: Gram positive, Gram negative, anaerobic, and atypical pathogens; experiment: In vitro antibacterial activity, agar dilution; assay type: cell-based; settings: clinical isolates
Experimental: as §1

Proteus mirabilis = experiment: In vitro antibacterial activity, agar dilution; assay type: cell-based; settings: clinical isolates
Experimental: as §1

enteric organisms = experiment: In vitro antibacterial activity, agar dilution; assay type: cell-based; settings: clinical isolates
Experimental: as §1

S. pneumoniae = experiment: In vitro antibacterial activity, agar dilution; assay type: cell-based
Experimental: as §1

Neisseria gonorrhoeae = experiment: In vitro antibacterial activity, agar dilution; assay type: cell-based; settings: clinical isolates
Experimental: as §1

Bacteroides species = experiment: In vitro antibacterial activity, agar dilution; assay type: cell-based; settings: anaerobic pathogens, clinical isolates
Experimental: as §1

Haemophilus influenzae = experiment: In vitro antibacterial activity, agar dilution; assay type: cell-based; settings: clinical isolates
Experimental: as §1

Klebsiella pneumoniae = experiment: In vitro antibacterial activity, agar dilution; assay type: cell-based; settings: clinical isolates
Experimental: as §1

[13] = activated charcoal added 0.02% (g/mL)
[14] = activated charcoal added 0.05% (g/mL)
[15] = activated charcoal added 0.5% (g/mL)
[16] = activated charcoal and iron powder added
[17] = activated charcoal, no iron powder
[18] = sterile temperature N/A (control group)
[19] = 0 day, after sterilization (110° C., 35 min)
[20] = 5 mg/mL in 0.9% saline, pH 3.00
[21] = 5 mg/mL in 0.9% saline, pH 3.76 (no acid/base added)
[22] = 5 mg/mL in 0.9% saline, pH 6.01

Structure (SMILES): COc1c(N2C[C@@H](C)C[C@H](N)C2)ccc2c(=O)c(C(=O)O)cn(C3CC3)c12 [Compound 1, (3S,5S)-7-[3-amino-5-methyl-piperidinyl]-1-cyclopropyl-1,4-dihydro-8-methoxy-4-oxo-3-quinolinecarboxylic acid]
- Appearance ([1]; pH 2.17): clear yellow solution
- Comparative content of Compound 1 (%) ([1]; pH 2.17): 96.68%
- Appearance ([1]; pH 4.50): clear yellow solution
- Comparative content of Compound 1 (%) ([1]; pH 4.50): 101.14%
- Appearance ([1]; pH 6.60): White precipitate
- MIC values (streptococci; all streptococci in this study): < 1 µg/mL
- antibacterial activity (in words) (streptococci; including multi-resistant S. pneumoniae): especially active
- MIC values (staphylococci; all staphylococci in this study): < 2 µg/mL
- antibacterial activity (in words) (staphylococci; including methicillin-resistant S. aureus (MRSA)): especially active
- Changes in appearance, color, clarity, pH, UV absorption, assay and impurity ([2]; 25° C., 60% RH, 12 months): No significant changes
- Changes in appearance, color, clarity, pH, UV absorption, assay and impurity ([2]; 40° C., 20% RH, 6 months): No significant changes
- Appearance ([3]; 0 day): Clear yellow
- Appearance ([3]; 5 days): Clear yellow
- Appearance ([3]; 10 days): Clear yellow
- UV Absorption ([3]; 0 day): Consist with
- UV Absorption ([3]; 5 days): Consist with
- UV Absorption ([3]; 10 days): Consist with
- pH Value ([3]; 0 day): 3.90
- pH Value ([3]; 5 days): 3.89
- pH Value ([3]; 10 days): 3.89
- Appearance ([4]; sterilized, 0 day): Clear yellow
- Comparative content of Compound 1 (%) ([4]; sterilized, 0 day): 102.6%
- Total Impurity (%) ([4]; sterilized, 0 day): 0.378%
- pH Value ([4]; sterilized, 0 day): 3.90
- Appearance ([4]; 5 days at 60° C.): Clear yellow
- Comparative content of Compound 1 (%) ([4]; 5 days at 60° C.): 103.2%
- Total Impurity (%) ([4]; 5 days at 60° C.): 0.375%
- pH Value ([4]; 5 days at 60° C.): 3.88
- Appearance ([4]; 10 days at 60° C.): Clear yellow
- Comparative content of Compound 1 (%) ([4]; 10 days at 60° C.): 104.0%
- Total Impurity (%) ([4]; 10 days at 60° C.): 0.410%
- pH Value ([4]; 10 days at 60° C.): 3.88
- MIC90 (MRSA; ciprofloxacin-resistant MRSA clinical isolates): 1 µg/mL (≈ 2.69 µM)
- MIC90 (MRSA; ciprofloxacin-sensitive MRSA clinical isolates): 0.06 µg/mL (≈ 0.162 µM)
- Comparative content of Compound 1 (%) ([5]; activated charcoal added 0): 109.0%
- pH Value ([5]; activated charcoal added 0, boiled 25 min, filtered, sterilized): 3.96
- Comparative content of Compound 1 (%) [5, 13]: 108.8%
- pH Value [5, 13]: 3.88
- Comparative content of Compound 1 (%) [5, 14]: 109.2%
- pH Value [5, 14]: 3.88
- Comparative content of Compound 1 (%) [5, 15]: 63.9%
- pH Value [5, 15]: 3.80
- Appearance [6, 16]: Reddish Brown
- pH [6, 16]: 3.77
- Appearance [6, 17]: Light yellow
- pH [6, 17]: 3.78
- Content (%) [7, 18]: 95.20%
- Total Impurity (%) [7, 18]: 0.167%
- pH Value [7, 18]: 3.86
- Content (%) ([7]; sterilization 105° C./35 min): 96.44%
- Total Impurity (%) ([7]; sterilization 105° C./35 min): 0.198%
- pH Value ([7]; sterilization 105° C./35 min): 3.86
- Content (%) ([7]; sterilization 110° C./35 min): 95.86%
- Total Impurity (%) ([7]; sterilization 110° C./35 min): 0.240%
- pH Value ([7]; sterilization 110° C./35 min): 3.86
- Content (%) ([7]; sterilization 115° C./35 min): 95.98%
- Total Impurity (%) ([7]; sterilization 115° C./35 min): 0.509%
- pH Value ([7]; sterilization 115° C./35 min): 3.85
- survival (S. pneumoniae Stp 6301; lethal intranasal infection, s.c. total dose 50, 25, 12.5 or 6.25 mg/kg (all tested levels), monitored 6 days): 100%
- viable bacteria in lung and blood (S. pneumoniae Stp 6301; mice infected intranasally, s.c. 12, 18, 24 h after infection, total dose 50, 25, 12.5 or 6.25 mg/kg (all levels), 4 h after last treatment, vs vehicle-treated controls): significantly reduced
- efficacy compared with moxifloxacin (S. pneumoniae Stp 6301; same dosage levels, pulmonary infection model): more efficacious than moxifloxacin
- Appearance [8, 19]: Clear yellow
- Comparative content of Compound 1 (%) [8, 19]: 97.8%
- pH [8, 19]: 3.88
- Appearance ([8]; 0 day, before sterilization): Clear yellow
- Comparative content of Compound 1 (%) ([8]; 0 day, before sterilization): 100.4%
- pH ([8]; 0 day, before sterilization): 3.89
- Appearance ([8]; 5 days at 60° C.): Dark yellow
- Comparative content of Compound 1 (%) ([8]; 5 days at 60° C.): 96.0%
- pH ([8]; 5 days at 60° C.): 4.03
- Appearance ([8]; 10 days at 60° C.): Brown
- Comparative content of Compound 1 (%) ([8]; 10 days at 60° C.): 94.2%
- pH ([8]; 10 days at 60° C.): 4.08
- Appearance ([9]; 0 day at −15° C.): Clear yellow
- Content ([9]; 0 day at −15° C.): 102.6
- Total Impurity (%) ([9]; 0 day at −15° C.): 0.378%
- pH Value ([9]; 0 day at −15° C.): 3.90
- Appearance ([9]; 5 days at −15° C.): Clear yellow
- Content ([9]; 5 days at −15° C.): 102.8
- Total Impurity (%) ([9]; 5 days at −15° C.): 0.370%
- pH Value ([9]; 5 days at −15° C.): 3.89
- Appearance ([9]; 10 days at −15° C.): Clear yellow
- Content ([9]; 10 days at −15° C.): 103.5
- Total Impurity (%) ([9]; 10 days at −15° C.): 0.373%
- pH Value ([9]; 10 days at −15° C.): 3.89
- Appearance, compound content, pH and total impurity (summary in words) ([9]; −15° C. for 10 days): maintained the same
- pH Value ([10]; 5 mg/mL in 0.9% saline, no acid/base added): 3.76
- Appearance [10, 20]: clear yellow solution
- Comparative content of Compound 1 (%) [10, 20]: 94.87%
- Appearance [10, 21]: clear yellow solution
- Comparative content of Compound 1 (%) [10, 21]: 103.62%
- Appearance [10, 22]: clear yellow solution
- Comparative content of Compound 1 (%) [10, 22]: 99.63%
- pH at which Compound 1 precipitated ([10]; 5 mg/mL in a saline solution): 6.6
- MIC90 ([11]; ciprofloxacin-resistant MSSA clinical isolates): 0.5 µg/mL (≈ 1.35 µM)
- MIC90 ([11]; ciprofloxacin-sensitive MSSA clinical isolates): 0.06 µg/mL (≈ 0.162 µM)
- MIC90 (E. coli): 0.12 µg/mL (≈ 0.323 µM)
- antibacterial activity (in words) (Clostridium difficile): active
- antibacterial activity (in words) (Pseudomonas aeruginosa): active against many isolates
- MIC90 (Moraxella catarrhalis): 0.03 µg/mL (≈ 0.0808 µM)
- antibacterial activity (in words) [12]: potent, broad-spectrum antibacterial activity
- MIC90 (Proteus mirabilis): 0.5 µg/mL (≈ 1.35 µM)
- antibacterial activity (in words) (enteric organisms): active against most enteric organisms
- MIC90 (S. pneumoniae; macrolide-resistant S. pneumoniae isolates): 0.12 µg/mL (≈ 0.323 µM)
- MIC90 (S. pneumoniae; penicillin-resistant S. pneumoniae isolates): 0.12 µg/mL (≈ 0.323 µM)
- MIC90 (S. pneumoniae; susceptible S. pneumoniae isolates): 0.12 µg/mL (≈ 0.323 µM)
- MIC90 (Neisseria gonorrhoeae): 0.06 µg/mL (≈ 0.162 µM)
- antibacterial activity (in words) (Bacteroides species): active
- MIC90 (Haemophilus influenzae): 0.12 µg/mL (≈ 0.323 µM)
- MIC90 (Klebsiella pneumoniae): 1 µg/mL (≈ 2.69 µM)
